Test results from PMC10528180 (Foods, 2023).

Columns and labels:
[1] = target: T1, α-amylase (Sus scrofa, UniProt P00690); test: Fluorescence quenching experiment with α-amylase (Stern-Volmer, double logarithmic, Van 't Hoff); format: binding, porcine; conditions: for Kd: Ka (binding constant) α-amylase
T1 construct: α-amylase (EC 232-565-6, powder, ≥5 units/mg solid) isolated from porcine pancreas; purchased Sigma-Aldrich Co; host or cells: porcine pancreas
T1 sequence (P00690 16-511): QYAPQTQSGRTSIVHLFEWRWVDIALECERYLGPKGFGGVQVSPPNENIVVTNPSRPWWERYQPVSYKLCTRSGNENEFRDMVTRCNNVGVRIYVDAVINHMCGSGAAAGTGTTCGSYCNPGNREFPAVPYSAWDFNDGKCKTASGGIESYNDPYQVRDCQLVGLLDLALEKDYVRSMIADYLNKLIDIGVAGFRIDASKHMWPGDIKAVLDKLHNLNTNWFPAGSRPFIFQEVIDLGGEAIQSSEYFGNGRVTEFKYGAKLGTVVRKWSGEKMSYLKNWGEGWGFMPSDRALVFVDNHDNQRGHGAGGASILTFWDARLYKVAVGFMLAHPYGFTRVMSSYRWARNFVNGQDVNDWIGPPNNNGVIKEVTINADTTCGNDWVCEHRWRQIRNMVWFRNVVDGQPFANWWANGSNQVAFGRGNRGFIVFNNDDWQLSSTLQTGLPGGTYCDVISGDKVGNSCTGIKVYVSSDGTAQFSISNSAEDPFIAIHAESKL
Description: Based on the previously described techniques, the fluorescence quenching experiment was somewhat modified. […] The 5.0 nm excitation and emission slit widths were predetermined.
The drop in fluorescence intensity brought on by the interaction of the quencher and the fluorescence group is what causes dynamic quenching. When the collision between the quencher and the fluorescence group intensifies as the temperature rises, the quenching constant rises. The quenching mechanism of the enzyme was further studied using the Stern–Volmer equation:(2) F0/F=1+Kqτ0Q=1+Ksv[Q], where Kq is the bimolecular quenching constant, F0 represents the fluorescence intensity of starch-digesting enzymes in the absence of inhibitors, F represents the fluorescence intensity of starch-digesting enzymes in the presence of inhibitors, and τ0 is the lifetime of the fluorophore in protein (about 10^−8 s).
By calculating the thermodynamic parameters of the quenching process, the binding affinity and the main force of the reaction process were evaluated. […] The thermodynamic parameters ΔH, ΔS, and ΔG represent enthalpy change, entropy change, and free energy change, respectively. […] The interaction forces in the reaction process can be roughly divided into four types: hydrophobic interaction, hydrogen bonding, electrostatic interaction, and van der Waals interaction.

[2] = target: T2, α-glucosidase (Saccharomyces cerevisiae, UniProt P53341); test: biochemical
T2 construct: purchased Sigma-Aldrich Co
Experimental: The other reagents used in this experiment are analytically pure reagents purchased from Sigma-Aldrich Co. (St. Louis, MI, USA) unless specified otherwise.
The in vitro α-glucosidase activity assay was determined using spectrophotometry, as previously reported, with only minor modifications. In phosphate buffer with a pH of 6.8, 0.5 U/mL of α-glucosidase and the appropriate quantity of p-nitrophenyl-D-glucopyranoside (pNGP) were produced. […] Gradient dilution with a phosphate-buffered solution was used to create sample solutions of various concentrations. First, different concentrations of compound (10 μL), an enzyme solution (40 μL), and potassium phosphate buffer (100 μL) were pre-incubated in 96-well plates at 37 °C for 10 min.
The enzymatic inhibitory activity of the tested compounds was calculated using the following formula: Inhibition %=[(Abs control−Abs sample)/Abs control]×100
The IC50 values of the tested compounds were calculated using nonlinear fitting (logit method).

[3] = target: T1, α-amylase; test: Inhibition kinetic analysis (Lineweaver-Burk) on α-amylase; format: biochemical, porcine; parameters: Vmax α-amylase: unit not given beside the values
Experimental: The reactions of a series of compounds with substrates pNαPG and G3-CNP were tested using the Lineweaver–Burk expression in Equation (1) to calculate the maximum velocity (Vmax) and Michaelis–Menten constant (Km) values. (1) 1/v=Km/Vmax1/[S]+1/Vmax, where Vmax and Km are the maximum velocity of the enzyme and the Michaelis–Menten constant without inhibitor, respectively. [S] is the concentrations of the substrate and inhibitor.

T2 sequence (P53341 whole entry): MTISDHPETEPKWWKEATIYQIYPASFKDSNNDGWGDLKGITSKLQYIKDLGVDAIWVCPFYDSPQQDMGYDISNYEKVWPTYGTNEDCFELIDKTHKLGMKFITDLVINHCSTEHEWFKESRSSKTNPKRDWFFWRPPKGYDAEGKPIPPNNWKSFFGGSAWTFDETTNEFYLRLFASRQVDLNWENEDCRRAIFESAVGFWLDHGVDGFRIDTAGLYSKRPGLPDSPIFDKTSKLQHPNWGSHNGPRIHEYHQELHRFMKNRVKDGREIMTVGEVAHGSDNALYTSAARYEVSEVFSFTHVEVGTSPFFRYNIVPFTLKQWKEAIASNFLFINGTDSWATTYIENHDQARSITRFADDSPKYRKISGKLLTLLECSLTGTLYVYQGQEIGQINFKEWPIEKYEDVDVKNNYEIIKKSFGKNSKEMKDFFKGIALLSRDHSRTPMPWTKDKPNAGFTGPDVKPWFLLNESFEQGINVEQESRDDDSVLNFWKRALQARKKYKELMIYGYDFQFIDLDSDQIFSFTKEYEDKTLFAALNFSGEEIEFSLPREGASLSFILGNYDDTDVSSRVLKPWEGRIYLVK

Question: `O=c1c(O)c(-c2ccc(O)c(O)c2)oc2cc(O[C@@H]3O[C@H](CO)[C@@H](O)[C@H](O)[C@H]3O)cc(O)c12` [Quercimeritrin] was tested. Which “fluorescence quenching mechanism, α-amylase” value [1] did it give?
Answer: Its value is “static quenching”.

Question: What about the Kd ([1]; T 300.15 K) of the same compound?
Answer: The Kd was 15.2 µM.

Question: And the Kd ([1]; T 305.15 K)?
Answer: Its Kd is 28.6 µM.

Question: And the Kd ([1]; T 310.15 K)?
Answer: The Kd was 38.5 µM.

Question: And the “Ksv (quenching constant) α-amylase” value ([1]; T 300.15 K)?
Answer: The value was 0.13 ±0.03 10^5 /M.

Question: What about the “n (number of binding sites) α-amylase” value ([1]; T 300.15 K) of the same compound?
Answer: The value was 1.20.

Question: And the “Ksv (quenching constant) α-amylase” value ([1]; T 305.15 K)?
Answer: Its value is 0.15 ±0.02 10^5 /M.

Question: And the “n (number of binding sites) α-amylase” value ([1]; T 305.15 K)?
Answer: The value was 1.10.

Question: And the “Ka (binding constant) α-amylase” value ([1]; T 310.15 K)?
Answer: Its value is 0.26 ± 0.01 10^5 /M.

Question: What about the “Ksv (quenching constant) α-amylase” value ([1]; T 310.15 K) of the same compound?
Answer: Its value is 0.18 ±0.04 10^5 /M.

Question: And the “n (number of binding sites) α-amylase” value ([1]; T 310.15 K)?
Answer: Its value is 1.04.

Question: And the “ΔH α-amylase” value ([1]; Van 't Hoff, 300.15-310.15 K)?
Answer: The value was -3.37 ± 0.93 kcal/mol.

Question: What about the “ΔS α-amylase” value ([1]; Van 't Hoff, 300.15-310.15 K) of the same compound?
Answer: The value was -153.31 ±34.89 J/mol/K.

Question: What about the “n (number of binding sites) α-amylase” value ([1]; text summary over temperatures) of the same compound?
Answer: Its value is roughly 1.

Question: And the IC50 [2]?
Answer: The IC50 was 79.9 µM.

Question: What about the inhibition at 500 µM ([2]; read-out: α-Glucosidase inhibition) of the same compound?
Answer: Its inhibition at 500 µM is 92%.

Question: What about the “inhibition mode on α-amylase” value ([3]; Lineweaver-Burk diagram) of the same compound?
Answer: The value was “competitive inhibition”.

Question: And the “Vmax α-amylase” value ([3]; [I] 15.6 μM)?
Answer: The value was 0.0521.

Question: What about the “Vmax α-amylase” value ([3]; [I] 31.3 μM) of the same compound?
Answer: Its value is 0.0532.

Question: And the “Vmax α-amylase” value ([3]; [I] 62.5 μM)?
Answer: The value was 0.0522.

Question: What about the “Vmax α-amylase” value ([3]; [I] 125 μM) of the same compound?
Answer: Its value is 0.0526.

Question: And the “Vmax α-amylase” value ([3]; [I] 250 μM)?
Answer: Its value is 0.0503.

Question: What about the “Vmax α-amylase” value ([3]; [I] 500 μM) of the same compound?
Answer: Its value is 0.0508.
